Experimental data taken from patent US20080145313A1, “Compositions and Methods for the Treatment and Prevention of Neoplastic Disorders” (Genesis Research & Development Corporation Limited, priority 2006, published 2008).

System: target transcript mRNA in A549 cells
Test: Level of mRNA of target transcript in A549 cells by quantitative RT-PCR (Tables 12 and 13)
Assay type: cell-based, human
Settings: 24 h post-transfection; for mRNA knockdown of energy and metabolism gene target transcript, 0.1 nM: 0.1 nM siRNA; for mRNA knockdown of energy and metabolism gene target transcript, 1 nM: 1 nM siRNA; for mRNA knockdown of energy and metabolism gene target transcript, 10 nM: 10 nM siRNA
Method: A549 cells were transfected as described before with 0.1, 1.0 and 10 nM siRNA as listed in Tables 10 and 11 and the relative mRNA levels quantified 24 h post-transfection. RNA was purified from cells using Trizol® extraction as per the manufacturer's protocol (Invitrogen). cDNA was prepared by digesting approximately 200 ng purified RNA with DNAse I (Invitrogen) for 15 minutes at room temperature, followed by 15 minutes at 65° C. in the presence of 25 mM EDTA. 30 ng random primers were added and incubated for 10 minutes at 65° C., 1 minute on ice; Superscript® III polymerase (Invitrogen) was added in presence of 5 nM DTT (Invitrogen) and 1 mM deoxyribonucleotides (Invitrogen), and the reaction incubated at 25° C. for 5 minutes, followed by an hour at 50° C. cDNA was diluted 1:3 in 10 mM Tris pH 7.0, and quantitative RT-PCR carried out on an ABI Prism 7900HT (Applied Biosciences, Inc., Foster City, Calif.) using FastStart TaqMan SYBRGreen (Roche, Basel, Switzerland) or Platinum SYBR Green (Invitrogen) and 360 nM of the primers specific for gene targets and housekeeping genes HPRT and Lamin. Reduction in target mRNA levels following siRNA transfection are given in Tables 12 and 13, together with the gene specific primer sequences. Primer sequences used for the housekeeping genes HPRT and Lamin are given in SEQ ID NO: 4885-4888.

Row | Substance | mRNA knockdown of energy and metabolism gene target transcript, 0.1 nM | mRNA knockdown of energy and metabolism gene target transcript, 1 nM | mRNA knockdown of energy and metabolism gene target transcript, 10 nM
1 | 1686 (AACAGGATCTTCGGCCCCATCTG; chemistry not given here) [compound 1686] | − (<50% mRNA knockdown) | − (<50% mRNA knockdown) | –
2 | 1687 (CAACAGGATCTTCGGCCCCATCTG; chemistry not given here) [compound 1687] | − (<50% mRNA knockdown) | − (<50% mRNA knockdown) | –
3 | 1688 (CCAACAGGATCTTCGGCCCCATCTG; chemistry not given here) [compound 1688] | + (50-70% mRNA knockdown) | ++ (70-90% mRNA knockdown) | –
4 | 1689 (GCCAACAGGATCTTCGGCCCCATCTG; chemistry not given here) [compound 1689] | − (<50% mRNA knockdown) | ++ (70-90% mRNA knockdown) | –
5 | 1690 (TGCCAACAGGATCTTCGGCCCCATCTG; chemistry not given here) [compound 1690] | ++ (70-90% mRNA knockdown) | ++ (70-90% mRNA knockdown) | –
6 | 1691 (TTGCCAACAGGATCTTCGGCCCCATCTG; chemistry not given here) [compound 1691] | − (<50% mRNA knockdown) | ++ (70-90% mRNA knockdown) | –
7 | 1692 (TTTGCCAACAGGATCTTCGGCCCCATCTG; chemistry not given here) [compound 1692] | − (<50% mRNA knockdown) | − (<50% mRNA knockdown) | –
8 | 1693 (ATTTGCCAACAGGATCTTCGGCCCCATCTG; chemistry not given here) [compound 1693] | − (<50% mRNA knockdown) | − (<50% mRNA knockdown) | –
9 | 1694 (CGTGAAGCTCCCTGACGCCTA; chemistry not given here) [compound 1694] | − (<50% mRNA knockdown) | − (<50% mRNA knockdown) | –
10 | 1695 (ACGTGAAGCTCCCTGACGCCTA; chemistry not given here) [compound 1695] | ++ (70-90% mRNA knockdown) | ++ (70-90% mRNA knockdown) | –
11 | 1696 (AACGTGAAGCTCCCTGACGCCTA; chemistry not given here) [compound 1696] | − (<50% mRNA knockdown) | − (<50% mRNA knockdown) | –
12 | 1697 (GAACGTGAAGCTCCCTGACGCCTA; chemistry not given here) [compound 1697] | ++ (70-90% mRNA knockdown) | + (50-70% mRNA knockdown) | –
13 | 1698 (AGAACGTGAAGCTCCCTGACGCCTA; chemistry not given here) [compound 1698] | + (50-70% mRNA knockdown) | + (50-70% mRNA knockdown) | –
14 | 1699 (AAGAACGTGAAGCTCCCTGACGCCTA; chemistry not given here) [compound 1699] | − (<50% mRNA knockdown) | ++ (70-90% mRNA knockdown) | –
15 | 1700 (CAAGAACGTGAAGCTCCCTGACGCCTA; chemistry not given here) [compound 1700] | + (50-70% mRNA knockdown) | ++ (70-90% mRNA knockdown) | –
16 | 3533 (AGATTGGAAGCCACCACATCAGTCTCAACA; chemistry not given here) [compound 3533] | − (<50% mRNA knockdown) | ++ (70-90% mRNA knockdown) | –

Row | Substance | mRNA knockdown of energy and metabolism gene target transcript, 0.1 nM | mRNA knockdown of energy and metabolism gene target transcript, 1 nM | mRNA knockdown of energy and metabolism gene target transcript, 10 nM
17 | 3534 (GGGTAGGAGCCCTACACTAGG; chemistry not given here) [compound 3534] | ++ (70-90% mRNA knockdown) | ++ (70-90% mRNA knockdown) | –
18 | 3535 (AGGGTAGGAGCCCTACACTAGG; chemistry not given here) [compound 3535] | ++ (70-90% mRNA knockdown) | +++ (>90% mRNA knockdown) | –
19 | 3536 (AAGGGTAGGAGCCCTACACTAGG; chemistry not given here) [compound 3536] | ++ (70-90% mRNA knockdown) | +++ (>90% mRNA knockdown) | +++ (>90% mRNA knockdown)
20 | 3537 (CAAGGGTAGGAGCCCTACACTAGG; chemistry not given here) [compound 3537] | ++ (70-90% mRNA knockdown) | +++ (>90% mRNA knockdown) | +++ (>90% mRNA knockdown)
21 | 3538 (CCAAGGGTAGGAGCCCTACACTAGG; chemistry not given here) [compound 3538] | ++ (70-90% mRNA knockdown) | ++ (70-90% mRNA knockdown) | +++ (>90% mRNA knockdown)
22 | 3539 (GCCAAGGGTAGGAGCCCTACACTAGG; chemistry not given here) [compound 3539] | − (<50% mRNA knockdown) | − (<50% mRNA knockdown) | − (<50% mRNA knockdown)
23 | 3540 (AGCCAAGGGTAGGAGCCCTACACTAGG; chemistry not given here) [compound 3540] | − (<50% mRNA knockdown) | − (<50% mRNA knockdown) | − (<50% mRNA knockdown)
24 | 3541 (GAGCCAAGGGTAGGAGCCCTACACTAGG; chemistry not given here) [compound 3541] | − (<50% mRNA knockdown) | − (<50% mRNA knockdown) | − (<50% mRNA knockdown)
25 | 3542 (GGAGCCAAGGGTAGGAGCCCTACACTAGG; chemistry not given here) [compound 3542] | + (50-70% mRNA knockdown) | ++ (70-90% mRNA knockdown) | –
26 | 3543 (TGGAGCCAAGGGTAGGAGCCCTACACTAGG; chemistry not given here) [compound 3543] | ++ (70-90% mRNA knockdown) | ++ (70-90% mRNA knockdown) | –
27 | 3544 (CTACCGCGAGCTGCGCTGGTT; chemistry not given here) [compound 3544] | ++ (70-90% mRNA knockdown) | ++ (70-90% mRNA knockdown) | –
28 | 3545 (ACTACCGCGAGCTGCGCTGGTT; chemistry not given here) [compound 3545] | ++ (70-90% mRNA knockdown) | ++ (70-90% mRNA knockdown) | +++ (>90% mRNA knockdown)
29 | 3546 (AACTACCGCGAGCTGCGCTGGTT; chemistry not given here) [compound 3546] | + (50-70% mRNA knockdown) | ++ (70-90% mRNA knockdown) | +++ (>90% mRNA knockdown)
30 | 3547 (CAACTACCGCGAGCTGCGCTGGTT; chemistry not given here) [compound 3547] | ++ (70-90% mRNA knockdown) | ++ (70-90% mRNA knockdown) | +++ (>90% mRNA knockdown)
31 | 3548 (GCAACTACCGCGAGCTGCGCTGGTT; chemistry not given here) [compound 3548] | ++ (70-90% mRNA knockdown) | ++ (70-90% mRNA knockdown) | +++ (>90% mRNA knockdown)
32 | 3549 (GGCAACTACCGCGAGCTGCGCTGGTT; chemistry not given here) [compound 3549] | + (50-70% mRNA knockdown) | +++ (>90% mRNA knockdown) | ++ (70-90% mRNA knockdown)
